Source: US8785439B2, “2,5,7-substituted oxazolopyrimidine derivatives” (Sanofi, priority 2010, dated 2014)

Biological target: T1, human Edg-1 receptor (Homo sapiens, UniProt P21453)
T1 construct: FLAG (N); expressed in transfected cells; membrane preparation
Assay: GTP-γ-S assay using human Edg-1 receptors (SPA, CHO Flp-In cell membrane preparation)
Assay type: biochemical
Details: test compound at 10 μM; high control 10 μM S1P regarded as 100% activation; background-corrected; triplicate
Method in brief: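 Membranes from CHO Flp-In cells stably overexpressing N-terminally FLAG-tagged human Edg-1 were used in a scintillation-proximity GTP-γ-S binding assay to measure receptor activation by compounds.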

T1 sequence (P21453 whole entry): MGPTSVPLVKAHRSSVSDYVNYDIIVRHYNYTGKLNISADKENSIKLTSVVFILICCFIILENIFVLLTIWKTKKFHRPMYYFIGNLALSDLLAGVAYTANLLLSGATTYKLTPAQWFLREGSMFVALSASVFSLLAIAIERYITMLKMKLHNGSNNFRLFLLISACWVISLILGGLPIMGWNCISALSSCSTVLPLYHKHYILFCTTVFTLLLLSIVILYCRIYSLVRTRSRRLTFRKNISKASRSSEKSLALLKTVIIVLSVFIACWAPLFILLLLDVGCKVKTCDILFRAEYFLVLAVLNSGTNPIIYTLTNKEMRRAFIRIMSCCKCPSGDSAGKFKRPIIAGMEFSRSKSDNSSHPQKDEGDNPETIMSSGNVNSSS

| % Activation (Edg-1 receptor activation in percent of the activation by 10 μM S1P) [%] | Structure (SMILES) |
| --- | --- |
| 58 | CCCOc1nc(NC2CCC(C)CC2)nc2oc(-c3cc(F)ccc3Cl)nc12 (stereo not drawn) [Example 148, [2-(2-chloro-5-fluoro-phenyl)-7-propoxy-oxazolo[5,4-d]pyrimidin-5-yl]-(4-methyl-cyclohexyl)-amine] |

Same assay, conditions: test compound at 10 μM; high control 10 μM S1P regarded as 100% activation; background-corrected; triplicate; read-out: % Activation (Edg-1 receptor activation in percent of the activation by 10 μM S1P)

| activation at 10 µM [%] | Structure (SMILES) |
| --- | --- |
| 62 | CCCOc1nc(Sc2ccc(C)cn2)nc2oc(-c3cc(F)ccc3Cl)nc12 [Example 155, 2-(2-chloro-5-fluoro-phenyl)-5-(5-methyl-pyridin-2-ylsulfanyl)-7-propoxy-oxazolo[5,4-d]pyrimidine] |
| 40 | CCCOc1nc(Sc2ccccc2)nc2oc(-c3ccc(Cl)c(Cl)c3)nc12 [Example 156, 2-(3,4-dichloro-phenyl)-5-phenylsulfanyl-7-propoxy-oxazolo[5,4-d]pyrimidine] |
| 104 | CCCOc1nc(Oc2ccc(C#N)c(F)c2)nc2oc(-c3cccc(C)c3)nc12 [Example 134, 2-fluoro-4-(7-propoxy-2-(3-methyl-phenyl)-oxazolo[5,4-d]pyrimidin-5-yloxy)-benzonitrile] |
| 66 | CCCOc1nc(Sc2cc(C)oc2C)nc2oc(-c3cc(F)ccc3Cl)nc12 [Example 151, 2-(2-chloro-5-fluoro-phenyl)-5-(2,5-dimethyl-furan-3-ylsulfanyl)-7-propoxy-oxazolo[5,4-d]pyrimidine] |

Continued, compound first:

| Structure (SMILES) | activation at 10 µM [%] |
| --- | --- |
| CCCOc1nc(Oc2ccc(C)c(F)c2)nc2oc(-c3cccc(F)c3)nc12 [Example 81, 5-(3-fluoro-4-methyl-phenoxy)-2-(3-fluoro-phenyl)-7-propoxy-oxazolo[5,4-d]pyrimidine] | 89 |
| CCCOc1nc(Sc2nccs2)nc2oc(-c3cc(F)ccc3Cl)nc12 [Example 59, 2-(2-chloro-5-fluoro-phenyl)-7-propoxy-5-(thiazol-2-ylsulfanyl)-oxazolo[5,4-d]pyrimidine] | 103 |
| CCCOc1nc(Oc2cc(Cl)ccc2C)nc2oc(-c3cccc(F)c3)nc12 [Example 67, 5-(5-chloro-2-methyl-phenoxy)-2-(3-fluoro-phenyl)-7-propoxy-oxazolo[5,4-d]pyrimidine] | 84 |
| CCCOc1nc(Oc2ccc(CC)cc2)nc2oc(-c3cccc(C)c3)nc12 [Example 122, 5-(4-ethyl-phenoxy)-7-propoxy-2-(3-methyl-phenyl)-oxazolo[5,4-d]pyrimidine] | 65 |
| CCCOc1nc(Oc2cccc(C(C)(C)C)c2)nc2oc(-c3cccc(C)c3)nc12 [Example 125, 5-(3-tert-butyl-phenoxy)-7-propoxy-2-(3-methyl-phenyl)-oxazolo[5,4-d]pyrimidine] | 61 |
| CCCOc1nc(Oc2c(C)cccc2Cl)nc2oc(-c3cccc(C)c3)nc12 [Example 91, 5-(2-chloro-6-methyl-phenoxy)-7-propoxy-2-(3-methyl-phenyl)-oxazolo[5,4-d]pyrimidine] | 105 |
| CCCOc1nc(Oc2ccc(C)nn2)nc2oc(-c3cccc(C)c3)nc12 [Example 19, 5-(6-methyl-pyridazin-3-yloxy)-7-propoxy-2-(3-methyl-phenyl)-oxazolo[5,4-d]pyrimidine] | 62 |
| CCCOc1nc(Oc2cc(F)ccc2F)nc2oc(-c3cccc(C)c3)nc12 [Example 94, 5-(2,5-difluoro-phenoxy)-7-propoxy-2-(3-methyl-phenyl)-oxazolo[5,4-d]pyrimidine] | 122 |
| CCCOc1nc(Oc2ccc(C#N)cc2OC)nc2oc(-c3cccc(C)c3)nc12 [Example 92, 3-methoxy-4-(7-propoxy-2-(3-methyl-phenyl)-oxazolo[5,4-d]pyrimidin-5-yloxy)-benzonitrile] | 51 |
| CCCOc1nc(Oc2cccc3c2OC(C)(C)C3)nc2oc(-c3cccc(C)c3)nc12 [Example 83, 5-(2,2-dimethyl-2,3-dihydro-benzofuran-7-yloxy)-7-propoxy-2-(3-methyl-phenyl)-oxazolo[5,4-d]pyrimidine] | 63 |
